Experimental data taken from patent publication US8652439B2, “Compositions of HSP60 peptides and viral antigens for vaccination and diagnosis” (priority 2005, dated 2014).

Tests used:
splenocytes [1] = assay: Proliferation of splenocytes from mice immunized with p15 conjugates, stimulated in vitro with p15; type: in vivo; details: spleens 10 days after immunization; p15 25 μg/ml, 3 days
Method: (§1) Mice were immunized with the following peptides as described in Example 8 using the following peptides: p15 (SEQ ID NO:11), p32 (SEQ ID NO:13), Ec27-p15 ([…], SEQ ID NO:77), and Mock-p15 ([…], SEQ ID NO:80—the p431 peptide fused to p15).
(§2) Spleens were harvested 10 days after the immunization and splenocytes were cultured with p15 (25 μg/ml) for 3 days. Cell proliferation and IFNγ levels in the supernatants of spleen cell cultures were measured. Results are the average of 3 independent proliferation experiments. Ec27-Ep15* and Ec27-Ep15** are two identical but independent groups in the same experiment.

IFN-γ = IFN-γ secretion of splenocytes from mice immunized with p15 conjugates, stimulated in vitro with p15; type: in vivo; details: spleens 10 days after immunization; p15 25 μg/ml, 3 days
Method: as §1, §2

BALB/c lymph node cells = assay: Proliferative response of lymph node cells to overlapping GroEL peptides after immunization with E. coli bacteria or GroEL; type: cell-based, BALB/c mice; details: mice immunized with E. coli bacteria or GroEL; peptides 20 μg/ml
lymph node cells = assay: Proliferative response of lymph node cells after immunization with the Ec27 peptide; type: in vivo, mice
[2] = tested on: splenocytes from WNV-infected mice; assay: Proliferation of splenocytes from WNV-infected mice after in vitro stimulation with peptides; type: cell-based; details: in vitro stimulation with peptide
WNV [3] = assay: Protective efficacy of immunization against WNV challenge (mortality); type: in vivo, BALB/c mice
WNV [4] = assay: Virus levels in brain after p32 immunization and WNV challenge (RT-PCR and plaque assay); type: in vivo, mice; details: day 7 after challenge with 10^6 pfu WNV; immunized 3 times
WNV-Ag [5] = assay: ELISA of anti-WNV Abs in sera of immunized mice; type: in vivo; details: 7 days after 3rd immunization; sera 1:40
Method: FIG. 11. Anti-WNV Abs in the sera of mice immunized with different peptides or with WNV Ag. (A) Mice were immunized 3 times with the different peptides or WNV-Ag at 7 day intervals. Seven days after the 3rd immunization mice were bled and sera were tested as follows. Wells were coated with WNV-Ag (1:700 dilution). After blocking and washing, the different sera were added at 1:40 dilution and binding was detected as described in methods (ELISA). Results are the average of 4 independent ELISA experiments. Bars, ±SD. (B) Isotypes of Anti-WNV antibodies.
ELISA tests were performed according to the method described by Martin et al (Martin et al, 2000) with slight modifications. Briefly, microtiter plates were coated and incubated overnight at 4° C. with 100 μl of the different peptides (1 μg/well) or WNV antigen diluted 1:700 in coating buffer (NaHCO3, pH=9.6). After incubation, the coating buffer was decanted and the plates were washed twice in PBS containing 0.05% Tween 20 and 0.2% sodium azide (washing buffer). After blocking for 1 h with a 200 μl/wen of PBS containing 0.05% Tween 20 and 2.5% nonfat dry milk, the plates were washed 4 times in washing buffer and 100 μl of IVIG-IL or mouse sera at 1:40 dilution were added to each well (2-4 wells per sample). […] The color intensity was measured by ELISA-reader (Dynatec MR 5000) at the absorbance of 405 nm. […]

WNV-Ag [6] = assay: Isotypes of anti-WNV antibodies (ELISA); type: in vivo, mice
Method: Plates were coated with the WNV-Ag diluted 1:700 in coating buffer. After overnight incubation at 4° C., blocking and washing, various dilutions of mouse sera were added in triplicates. Negative and positive controls of mouse sera were tested in each plate. Total IgG assessment was performed using HRP-Streptavidin-conjugated anti-mouse IgG (SouthernBiotech). For antibody isotype identification, incubation with biotin-conjugated anti-mouse IgG1, IgG2a, IgG2b, IgG3, IgA and IgM antibodies (PharMingen, San Diego, Calif.) was followed by incubation with 1:1000 diluted HRP-Streptavidin (Jackson Laboratories, West Grove, Pa.). After substrate addition the color intensity was measured by ELISA-reader at 405 nm.
Next, it was examined whether p32 immunization and sublethal infection with WNV induce similar isotypes of anti-WNV antibodies. WNV-Ag was used as the antigen in the ELISA plates.

splenocytes [7] = assay: Proliferation of splenocytes from p32-immunized mice after in vitro stimulation; type: in vivo; details: in vitro stimulation with WNV antigen
IFNγ = IFNγ secretion of splenocytes from p32-vaccinated mice; type: in vivo; details: in vitro stimulation with WNV antigen
[8] = 3 immunizations, 10^6 pfu WNV, 21 days post challenge, 5 experiments
[9] = sera of p32-immunized versus WNV-infected mice

For KKARVEDALHATRAAVEEGV [Ec27], the “Proliferation of spleen cells in the presence of p15” value (splenocytes [1]) was “did not induce significant proliferation”, the “IFN-γ secretion of spleen cells in the presence of p15” value (IFN-γ) was “did not induce significant proliferation and IFN-γ secretion” and the “Proliferative response of draining LNC to GroEL peptide” value (BALB/c lymph node cells) was “highly immunogenic”. The “Proliferative response of lymph node cells of Ec27-immunized BALB/c mice” value (lymph node cells; 20 μg Ec27 in IFA s.c., 10 days later) was “responded the Ec27 peptide and to the whole GroEL molecule, but not to the control peptide AcR 259-271” and the “Proliferative response of mouse strains with different MHC haplotypes” value (lymph node cells; BALB/c, BALB/k, BALB/b, SJL) was “all four different mouse strains responded specifically”.
With NEDQKIGIEIIKRALKILVTVNPFVSVATANS [p32] the “Proliferation of T cells from WNV-infected mice” value [2] was “proliferated in response to in vitro stimulation”, the “Mortality (% deaths)” value (WNV [3]; [8]) was “(10%)” and the “Mortality (dead of total)” value (WNV [3]; [8]) was 2/21. The “Protective efficacy against WNV challenge” value (WNV [3]; summary of 5 experiments) was “a high degree of protection”, the “Virus levels in the brain” value (WNV [4]) was “no virus was detected” and the “WNV-specific Abs in sera” value (WNV-Ag [5]) was “high titer of WNV-specific Abs as compared to immunization with p15 alone”. The “WNV-specific IgA and IgG3” value (WNV-Ag [6]; sera of p32-immunized and WNV-infected mice) was “Neither IgA nor IgG3 specific for WNV were detected”, the “Anti-WNV IgG1 and IgG2a levels” value (WNV-Ag [6]; [9]) was “similarly high” and the “WNV-specific IgG2b levels” value (WNV-Ag [6]; [9]) was “higher in sera from WNV-infected mice”. For the same sequence, the “WNV-specific IgM levels” value (WNV-Ag [6]; [9]) was “higher in p32-immunized mice”, the “Proliferation of splenocytes from immunized mice” value (splenocytes [7]) was “proliferated in response to in vitro stimulation with WNV antigen” and the “IFNγ secretion of splenocytes from immunized mice” value (IFNγ) was “secretion of high levels of IFNγ”.
